Source: ChEMBL document CHEMBL4145548, “Pyrimidine-chloroquinoline hybrids: Synthesis and antiplasmodial activity” (Eur J Med Chem, 2018)
pIC50: −log10 of the molar value. ≈ marks a conversion by molar mass, not a printed value. Calls of active or inactive are those of the source. No cut-off for these calls is given here.

Assays:
[1] = tested on: Plasmodium falciparum; assay: Potency index, ratio of chloroquine IC50 to compound IC50 for antiplasmodial activity against chloroquine-resistant Plasmodium falciparum Dd2; format: functional
[2] = tested on: Vero; assay: Cytotoxicity against African green monkey Vero cells assessed as reduction in cell viability by MTT assay; format: cell-based; settings: Chlorocebus sabaeus
[3] = Aqueous solubility in pH 7.4 PBS buffer after 24 hrs by HPLC analysis; format: physicochemical
[4] = n-octanol-phosphate buffer distribution coefficient, log D of the compound at pH 7.4 after 1 hr by HPLC method; format: physicochemical
[5] = Solubility in n-octanol at pH 7.4 after 24 hrs by HPLC analysis; format: physicochemical
[6] = in vitro; settings: monkey, Vero cells
Description: Selectivity index, ratio of IC50 for African green monkey Vero cells to IC50 for chloroquine-sensitive Plasmodium falciparum NF54

[7] = tested on: Plasmodium falciparum; assay: microbe, parasite or virus in culture; settings: NF54
Description: Antiplasmodial activity against chloroquine-sensitive Plasmodium falciparum NF54 by LDH release assay

[8] = tested on: Plasmodium falciparum; assay: microbe, parasite or virus in culture; settings: Dd2
Description: Antiplasmodial activity against chloroquine-resistant Plasmodium falciparum Dd2 by LDH release assay

[9] = tested on: Heme; assay: Binding affinity to monomeric heme assessed as decrease in soret band intensity up to 40 uM at pH 5.6 to 7.4 by titration-based UV-vis spectrophotometric analysis
[10] = tested on: mu-oxodimeric heme; assay: Binding affinity to mu-oxodimeric heme assessed as decrease in soret band intensity up to 26.7 uM at pH 5.8 by titration-based UV-vis spectrophotometric analysis
[11] = tested on: Heme; assay: Binding affinity to monomeric heme at pH 7.4 by titration-based UV-vis spectrophotometric analysis
[12] = tested on: Heme; assay: Binding affinity to monomeric heme at pH 5.6 by titration-based UV-vis spectrophotometric analysis
[13] = tested on: mu-oxodimeric heme; assay: Binding affinity to mu-oxodimeric heme at pH 5.8 by titration-based UV-vis spectrophotometric analysis
[14] = tested on: unidentified; assay: Inhibition of acetate buffer-initiated beta-hematin polymerization at 1.2 equiv measured after 1 hr by FT-IR spectroscopic method
[15] = tested on: Heme; assay: Binding affinity to monomeric heme by 1H NMR method
[16] = tested on: Heme; assay: Binding affinity to monomeric heme at 5 umol by HRMS mass spectrum analysis
[17] = tested on: Calf thymus DNA; assay: Binding affinity to calf thymus DNA at 66 uM by UV-visible absorption spectral analysis; format: nucleic-acid assay; settings: Bos taurus
[18] = tested on: Calf thymus DNA; assay: Binding affinity to calf thymus DNA assessed as association constant by Benesi-Hildebrand equation analysis; format: nucleic-acid assay; settings: Bos taurus
[19] = tested on: Calf thymus DNA; assay: Binding affinity to calf thymus DNA by UV-visible absorption spectral analysis; format: nucleic-acid assay; settings: Bos taurus
[20] = tested on: DNA; assay: Binding affinity to Escherichia coli pUC18 DNA by UV-visible absorption spectral analysis; format: nucleic-acid assay
[21] = tested on: Calf thymus DNA; assay: Binding affinity to calf thymus DNA at 17.1 uM by fluorimetry analysis; format: nucleic-acid assay; settings: Bos taurus
[22] = tested on: DNA; assay: Binding affinity to Escherichia coli pUC18 DNA at 17.1 uM by fluorimetry analysis; format: nucleic-acid assay
[23] = tested on: Calf thymus DNA; assay: Binding affinity to calf thymus DNA assessed as change in melting temperature at DNA to compound ratio of 5:1; format: nucleic-acid assay; settings: Bos taurus

Structure (SMILES)	Ratio IC50 [1]	pIC50 [2]	solubility at 24 h [3] [µM]	logD at 1 h [4]	solubility at 24 h [5] [µM]	pIC50 [7]	also measured
Clc1ccc2c(NCCCNc3nccc(N4CCCC4)n3)ccnc2c1	3.2						
Clc1ccc2c(NCCCOc3nccc(Cl)n3)ccnc2c1	3.2						
CCOC(=O)c1c(C)nc(OCc2cn(CCNc3ccnc4cc(Cl)ccc34)nn2)nc1-c1ccccc1		3.83	3.3 (≈ 1.8 µg/mL)	0.81	21.7 (≈ 11.8 µg/mL)	5.83	selectivity ratio [6]: 100; pIC50 [8]: 5.60
CCOC(=O)c1c(C)nc(OCc2cn(CCCNc3ccnc4cc(Cl)ccc34)nn2)nc1C		< 3.70	8.01 (≈ 3.97 µg/mL)	0.42	21.2 (≈ 10.5 µg/mL)	6.15	selectivity ratio [6]: > 287; pIC50 [8]: 5.95
C[C@H]1[C@H](OC(=O)CCC(=O)O)O[C@@H]2O[C@@]3(C)CC[C@H]4[C@H](C)CC[C@@H]1[C@@]24OO3 [ARTESUNATE]						> 5.28	
Clc1ccc2c(NCCCNc3nccc(N4CCCCC4)n3)ccnc2c1	3.2						
Cc1nccc(NCCNc2ccnc3cc(Cl)ccc23)n1	3.2						
Cc1nc(OCc2cn(-c3ccnc4cc(Cl)ccc34)nn2)nc(-c2ccccc2[N+](=O)[O-])c1C(=O)OC(C)C			2.93 (≈ 1.64 µg/mL)	1.1	37.4 (≈ 20.9 µg/mL)	4.79	
Clc1ccc2c(NCCCCNc3nccc(Cl)n3)ccnc2c1	3.2						
Clc1ccc2c(NCCCNc3ccnc(Cl)n3)ccnc2c1	3.2						
Cc1nc(OCc2cn(CCCNc3ccnc4cc(Cl)ccc34)nn2)nc(-c2ccc([N+](=O)[O-])cc2)c1C(=O)OC(C)C		4.82	0.55 (≈ 0.339 µg/mL)	1.43	14.9 (≈ 9.18 µg/mL)	7.32	Activity [9]: Active; Activity [10]: Active; log K [11]: 4.68; log K [12]: 4.27; log K [13]: 5.43; inhibition [14]: Active; Activity [15]: Active; Activity [16]: Active; Activity [17]: Active; log K [18]: 2.29; log K [19]: 3.74; log K [20]: 3.92; Activity [21]: Active; Activity [22]: Active; ΔTm [23]: 2.5 °C; selectivity ratio [6]: 318; pIC50 [8]: 5.34
Clc1ccc2c(NCCCCCCCCNc3nccc(Cl)n3)ccnc2c1	3.2						
CCOC(=O)c1c(C)nc(OCc2cn(-c3ccnc4cc(Cl)ccc34)nn2)nc1-c1ccccc1			5.47 (≈ 2.74 µg/mL)	1.08	66.2 (≈ 33.2 µg/mL)	4.91	
Clc1ccc2c(NCCCNc3nccc(N4CCOCC4)n3)ccnc2c1	3.2						
Cc1nc(OCc2cn(-c3ccnc4cc(Cl)ccc34)nn2)nc(-c2ccc([N+](=O)[O-])cc2)c1C(=O)OC(C)C			4.54 (≈ 2.54 µg/mL)	1.12	60.5 (≈ 33.9 µg/mL)	5.10	
CC[C@H]1CN2CCc3cc(OC)c(OC)cc3[C@@H]2C[C@@H]1C[C@H]1NCCc2cc(OC)c(OC)cc21 [EMETINE]		6.75					
Clc1ccc2c(NCCCCCCCCCCNc3nccc(Cl)n3)ccnc2c1	3.2						
CCN(CC)CCCC(C)Nc1ccnc2cc(Cl)ccc12 (stereo not given)							ΔTm [23]: 4 °C
Cc1nc(OCc2cn(CCNc3ccnc4cc(Cl)ccc34)nn2)nc(-c2ccccc2[N+](=O)[O-])c1C(=O)OC(C)C		3.84	2.3 (≈ 1.39 µg/mL)	0.86	16.7 (≈ 10.1 µg/mL)	6.28	selectivity ratio [6]: 274; pIC50 [8]: 5.97

Structure (SMILES)	Ratio IC50 [1]	pIC50 [2]	solubility at 24 h [3] [µM]	logD at 1 h [4]	solubility at 24 h [5] [µM]	pIC50 [7]	also measured
COC(=O)c1c(C)nc(OCc2cn(-c3ccnc4cc(Cl)ccc34)nn2)nc1-c1ccccc1			3.31 (≈ 1.61 µg/mL)	0.69	16.3 (≈ 7.96 µg/mL)	4.80	
Clc1ccnc(N2CCOCC2)n1	3.2						
Clc1ccc2c(NCCNc3nccc(Cl)n3)ccnc2c1	3.2						
COC(=O)c1c(C)nc(OCc2cn(CCNc3ccnc4cc(Cl)ccc34)nn2)nc1-c1ccccc1			11.3 (≈ 5.99 µg/mL)	0.58	44.7 (≈ 23.7 µg/mL)	4.98	
Cc1nc(OCc2cn(CCCNc3ccnc4cc(Cl)ccc34)nn2)nc(-c2ccccc2)c1C(=O)OC(C)C		4.54	1.21 (≈ 0.692 µg/mL)	1.72	63.5 (≈ 36.3 µg/mL)	6.48	selectivity ratio [6]: 86.4; pIC50 [8]: 6.21
Cc1nc(OCc2cn(CCNc3ccnc4cc(Cl)ccc34)nn2)nc(-c2ccc([N+](=O)[O-])cc2)c1C(=O)OC(C)C		3.82	7.03 (≈ 4.24 µg/mL)	0.88	54.4 (≈ 32.8 µg/mL)	6.74	selectivity ratio [6]: 833; pIC50 [8]: 6.00
Clc1ccc2c(NCCCNc3nccc(N4CCNCC4)n3)ccnc2c1	3.2						
Cc1nc(OCc2cn(CCNc3ccnc4cc(Cl)ccc34)nn2)nc(-c2ccccc2)c1C(=O)OC(C)C		3.83	3.21 (≈ 1.79 µg/mL)	1.21	53.1 (≈ 29.6 µg/mL)	6.19	selectivity ratio [6]: 232; pIC50 [8]: 5.70
Cc1nc(OCc2cn(CCCNc3ccnc4cc(Cl)ccc34)nn2)nc(-c2ccccc2[N+](=O)[O-])c1C(=O)OC(C)C		4.63	0.58 (≈ 0.358 µg/mL)	1.31	12.1 (≈ 7.49 µg/mL)	6.22	selectivity ratio [6]: 38.9; pIC50 [8]: 6.07
CCOC(=O)c1c(C)nc(OCc2cn(CCNc3ccnc4cc(Cl)ccc34)nn2)nc1C		< 3.68	19.1 (≈ 9.21 µg/mL)	0.27	35.6 (≈ 17.2 µg/mL)	5.60	selectivity ratio [6]: > 83; pIC50 [8]: 5.09
COC(=O)c1c(C)nc(OCc2cn(CCCNc3ccnc4cc(Cl)ccc34)nn2)nc1-c1ccccc1		3.81	5.64 (≈ 3.07 µg/mL)	0.78	34.2 (≈ 18.6 µg/mL)	6.00	selectivity ratio [6]: 154; pIC50 [8]: 5.78
CCOC(=O)c1c(C)nc(OCc2cn(CCCNc3ccnc4cc(Cl)ccc34)nn2)nc1-c1ccccc1		3.82	3.11 (≈ 1.74 µg/mL)	1.19	48.3 (≈ 27 µg/mL)	6.05	selectivity ratio [6]: 172; pIC50 [8]: 5.86
CCOC(=O)c1c(C)nc(OCc2cn(-c3ccnc4cc(Cl)ccc34)nn2)nc1C			7.18 (≈ 3.15 µg/mL)	0.39	17.8 (≈ 7.8 µg/mL)	4.07	
Clc1ccc2c(NCCCNc3ccnc(N4CCCCC4)n3)ccnc2c1	3.2						
Clc1ccc2c(NCCCCCCCCNc3ccnc(Cl)n3)ccnc2c1	3.2						
Clc1ccc2c(NCCCCCCCCCCCCNc3nccc(Cl)n3)ccnc2c1	3.2						
Clc1ccc2c(NCCCNc3ccnc(N4CCOCC4)n3)ccnc2c1	3.2						
Clc1ccc2c(NCCCCCCCNc3nccc(Cl)n3)ccnc2c1	3.2						
Cc1nc(OCc2cn(-c3ccnc4cc(Cl)ccc34)nn2)nc(-c2ccccc2)c1C(=O)OC(C)C			1.78 (≈ 0.917 µg/mL)	1.46	52.5 (≈ 27 µg/mL)	4.85	
